Earlier results, collected in article PMC4138512 (Journal of computer-aided molecular design, 2014).

Tested on: BoNT/A

| Compound | Inhibition in combination with 2,4-dichlorocinnamic hydroxamate | Type of inhibition of BoNT/A | Inhibition in combination with 2,4-dichlorocinnamic hydroxamate and chicoric acid |
| --- | --- | --- | --- |
| O=C(/C=C/c1ccc(O)c(O)c1)O[C@H](C(=O)O)[C@H](OC(=O)/C=C/c1ccc(O)c(O)c1)C(=O)O [D-chicoric acid] | nonmutually exclusive inhibition | partial inhibition |  |
| COC(=O)c1ccc(O)c2nc3c(C=O)c(O)cc(O)c3nc12 [lomofungin] |  | non-competitive | synergistic inhibition |
